Values quoted from earlier work, collected in patent publication US20030130180A1, “Utilization of an aminopeptidase inhibitor” (priority 2000, published 2003).

Tested on: tumor cells
Conditions: in vitro, matrigel analytic system; cited from earlier work

CCCCC[C@H](CC(=O)NO)C(=O)N[C@H](C(=O)N1CCC[C@H]1CO)C(C)C [actinonin]
tumor cell invasion: do not have an effect
